The record followed here is patent US7601716B2, “Pyridopyrazines and derivatives thereof as ALK and c-Met inhibitors” (Cephalon, Inc., priority 2006, dated 2009).

Test [1] has as its target T1, c-Met (cytoplasmic domain) (Homo sapiens, UniProt P08581).
T1 construct: Reactions were initiated with 30 ng/mL c-Met (cytoplasmic domain, Invitrogen Corporation #PV3143); purchased Invitrogen Corporation PV3143
Kind of test: c-Met Kinase Assay (ELISA/TRF, PLC-γ substrate). Type of test: biochemical. Conditions: 3 μM ATP (Km level); read-out: c-Met Kinase Inhibition (IC50). How it is done:
Example compounds were tested for their ability to inhibit the kinase activity of baculovirus-expressed ALK using a modification of the ELISA protocol reported for trkA in Angeles, T. S. et al., Anal. Biochem. 1996, 236, 49-55, which is incorporated herein by reference in its entirety. Phosphorylation of the substrate, phospholipase C-gamma (PLC-γ) generated as a fusion protein with glutathione S-transferase (GST) as reported in Rotin, D. et al., EMBO J. 1992, 11, 559-567, which is incorporated herein by reference in its entirety, was detected with a europium-labeled anti-phosphotyrosine antibody and measured by time-resolved fluorescence (TRF). Briefly, each 96-well plate was coated with 100 μL/well of 10 μg/mL substrate (phospholipase C-γ) in Tris-buffered saline (TBS). […] The reaction was initiated by adding enzyme (30 ng/ml ALK) and was allowed to proceed at 37° C. for 15 minutes. Detection of the phosphorylated product was performed by adding 100 μl/well of Eu-N1 labeled PT66 antibody (Perkin Elmer # AD0041). Incubation at 37° C. then proceeded for one (1) hour, followed by addition of 100 μL enhancement solution (Wallac #1244-105). The plate was gently agitated and after thirty minutes, the fluorescence of the resulting solution was measured using the EnVision 2100 (or 2102) multilabel plate reader (Perkin Elmer).
Data analysis was performed using ActivityBase (IDBS, Guilford, UK). IC50 values were calculated by plotting percent inhibition versus log10 of the concentration of compound and fitting to the nonlinear regression sigmoidal dose-response (variable slope) equation in XLFit (IDBS, Guilford, UK).
Reactions were initiated with 30 ng/mL c-Met (cytoplasmic domain, Invitrogen Corporation #PV3143).
A general note: In an ELISA, binding on a coated surface is turned into a signal by an enzyme label.

Test [2] deals with baculovirus-expressed ALK (Homo sapiens, UniProt Q9UM73). Kind of test: ALK Kinase Assay (ELISA/TRF, PLC-γ substrate). Also: 1 µM ATP (Km level). Type of test: biochemical. Conditions: read-out: ALK Kinase Inhibition (IC50). An outline of the steps:
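IC50 values fitted by nonlinear sigmoidal regression (variable slope) of percent inhibition against log compound concentration. Read-out was TRF of Eu-N1 anti-phosphotyrosine antibody bound to phosphorylated, plate-coated GST-PLC-γ (10 µg/mL). Kinase reaction used ALK at 30 ng/ml for 15 min at 37 °C.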

Where a name gives a salt, the structure may show the parent alone.

T1 sequence (P08581 956-1390 limits assumed): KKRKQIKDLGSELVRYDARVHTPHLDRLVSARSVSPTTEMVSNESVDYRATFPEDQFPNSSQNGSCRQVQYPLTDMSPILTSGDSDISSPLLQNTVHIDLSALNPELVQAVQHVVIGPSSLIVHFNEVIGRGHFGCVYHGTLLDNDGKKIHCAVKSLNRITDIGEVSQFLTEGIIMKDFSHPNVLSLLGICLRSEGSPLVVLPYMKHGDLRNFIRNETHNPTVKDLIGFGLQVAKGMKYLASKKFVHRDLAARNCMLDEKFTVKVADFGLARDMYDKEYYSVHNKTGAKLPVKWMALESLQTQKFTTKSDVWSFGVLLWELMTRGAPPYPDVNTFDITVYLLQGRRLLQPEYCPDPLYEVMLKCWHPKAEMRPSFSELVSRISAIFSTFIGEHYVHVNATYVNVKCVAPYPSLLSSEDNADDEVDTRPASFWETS
Chain of baculovirus-expressed ALK (Q9UM73 19-1620): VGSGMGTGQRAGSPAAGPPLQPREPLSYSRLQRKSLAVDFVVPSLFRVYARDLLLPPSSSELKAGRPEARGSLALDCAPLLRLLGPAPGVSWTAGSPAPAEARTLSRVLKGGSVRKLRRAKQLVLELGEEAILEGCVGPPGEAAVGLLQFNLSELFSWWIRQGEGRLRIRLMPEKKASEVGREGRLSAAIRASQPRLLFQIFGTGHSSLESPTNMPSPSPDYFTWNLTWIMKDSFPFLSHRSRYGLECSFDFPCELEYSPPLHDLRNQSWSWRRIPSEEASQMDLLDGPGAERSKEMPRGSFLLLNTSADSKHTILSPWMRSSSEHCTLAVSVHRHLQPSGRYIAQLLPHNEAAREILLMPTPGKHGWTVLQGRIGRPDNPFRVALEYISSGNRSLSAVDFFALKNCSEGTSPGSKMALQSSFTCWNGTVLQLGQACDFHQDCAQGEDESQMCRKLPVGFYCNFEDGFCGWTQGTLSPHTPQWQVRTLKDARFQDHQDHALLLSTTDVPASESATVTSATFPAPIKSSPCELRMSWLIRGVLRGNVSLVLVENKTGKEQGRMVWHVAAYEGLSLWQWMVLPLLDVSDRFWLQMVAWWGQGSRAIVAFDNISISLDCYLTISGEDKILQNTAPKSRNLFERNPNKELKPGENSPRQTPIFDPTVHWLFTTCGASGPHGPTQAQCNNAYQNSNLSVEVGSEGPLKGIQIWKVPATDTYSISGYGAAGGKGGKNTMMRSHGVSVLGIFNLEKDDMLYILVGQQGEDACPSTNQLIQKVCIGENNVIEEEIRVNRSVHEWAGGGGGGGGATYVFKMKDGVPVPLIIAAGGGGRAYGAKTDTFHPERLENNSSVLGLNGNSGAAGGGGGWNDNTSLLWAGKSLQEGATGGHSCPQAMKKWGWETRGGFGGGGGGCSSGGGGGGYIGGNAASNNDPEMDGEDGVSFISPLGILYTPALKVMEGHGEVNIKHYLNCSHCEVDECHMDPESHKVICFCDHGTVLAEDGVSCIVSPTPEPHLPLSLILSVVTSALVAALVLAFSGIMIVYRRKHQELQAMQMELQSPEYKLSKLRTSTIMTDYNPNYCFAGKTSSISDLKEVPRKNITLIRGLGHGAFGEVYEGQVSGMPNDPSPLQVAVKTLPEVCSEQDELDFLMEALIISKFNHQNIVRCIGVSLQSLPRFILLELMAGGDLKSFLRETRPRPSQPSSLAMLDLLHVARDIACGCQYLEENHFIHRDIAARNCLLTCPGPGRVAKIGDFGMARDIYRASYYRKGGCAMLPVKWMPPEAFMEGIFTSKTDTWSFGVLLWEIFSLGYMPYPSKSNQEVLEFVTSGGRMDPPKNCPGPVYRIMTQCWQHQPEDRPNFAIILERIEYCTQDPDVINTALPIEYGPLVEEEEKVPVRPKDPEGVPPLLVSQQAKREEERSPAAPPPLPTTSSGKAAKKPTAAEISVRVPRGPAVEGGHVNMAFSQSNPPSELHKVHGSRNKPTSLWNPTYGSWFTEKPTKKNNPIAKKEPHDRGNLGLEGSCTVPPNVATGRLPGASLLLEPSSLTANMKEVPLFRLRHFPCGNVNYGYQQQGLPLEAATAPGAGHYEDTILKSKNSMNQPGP

On to `Clc1cccc(OC2CCNc3ncc(Br)cc32)c1` (centres unmarked) [Example 271, 6-Bromo-4-(3-chlorophenoxy)-1,2,3,4-tetrahydro-[1,8]naphthyridine], for which the IC50 in test [1] was 10000 to 100000 nM; in test [2], > 100000 nM.
For the molecule `CC(C)NC(=O)CN1CCN(C(=O)c2cnc3c(c2)N(Cc2cc(Cl)ccc2Cl)CCN3)CC1` [Example 236, 2-{4-[1-(2,5-Dichlorobenzyl)-1,2,3,4-tetrahydropyrido[2,3-b]pyrazine-7-carbonyl]piperazin-1-yl}-N-isopropylacetamide], the IC50 in test [1] was in the range of 10000 to 100000 nM; in test [2] it was 1000 to 10000 nM.
For `CN1CCN(c2cc(-c3cnc4c(c3)C(Oc3cccc(Cl)c3)CCN4)ccn2)CC1` (centres unmarked) [Example 278, 4-(3-Chlorophenoxy)-6-[2-(4-methylpiperazin-1-yl)pyridin-4-yl]-1,2,3,4-tetrahydro-[1,8]naphthyridine], in that order: 1000 to 10000 nM and 1000 to 10000 nM.
Regarding `Clc1cccc(Cl)c1CN1CCNc2ncc(-c3cccnc3)cc21` [Example 138, 1-(2,6-Dichlorobenzyl)-7-pyridin-3-yl-1,2,3,4-tetrahydropyrido[2,3-b]pyrazine, trifluoroacetic acid salt], the results for the IC50 in test [1] and in test [2] were 10000 to 100000 nM and 1000 to 10000 nM, respectively.
For `CN1CCN(c2ccc(-c3cnc4c(c3)C(Oc3cccc(Cl)c3)CCN4)cn2)CC1` (centres unmarked) [Example 281, 4-(3-Chlorophenoxy)-6-[6-(4-methylpiperazin-1-yl)pyridin-3-yl]-1,2,3,4-tetrahydro-[1,8]naphthyridine], the values for the IC50 in test [1] and in test [2] were 1000 to 10000 nM and 100 to 1000 nM, respectively.
On to `O=C1CNc2ncc(-c3ccc(NC(=O)N4CCC[C@H]4CN4CCCC4)cc3)cc2N1Cc1cc(F)ccc1F` [Example 61, (S)-2-[(pyrrolidin-1-yl)methyl]pyrrolidine-1-carboxylic acid{4-[1-(2,5-difluorobenzyl)-2-oxo-1,2,3,4-tetrahydropyrido[2,3-b]pyrazin-7-yl]phenyl}-amide], for which the IC50 in test [1] fell in the range of 1000 to 10000 nM; in test [2] it was 100 to 1000 nM.
Consider `O=C(NCc1ccc(-c2ccccc2)cc1)c1cnc2c(c1)N(Cc1cc(Cl)ccc1Cl)CCN2` [Example 249, 1-(2,5-Dichlorobenzyl)-1,2,3,4-tetrahydropyrido[2,3-b]pyrazine-7-carboxylic acid (biphenyl-4-ylmethyl)amide], for which the IC50 in test [1] was > 100000 nM; in test [2], 10000 to 100000 nM.
With `O=C(c1cnc2c(c1)N(Cc1cc(Cl)ccc1Cl)CCN2)N1CCC2(CC1)C(=O)NCN2c1ccccc1` [Example 216, 8-[1-(2,5-Dichlorobenzyl)-1,2,3,4-tetrahydropyrido[2,3-b]pyrazine-7-carbonyl]-1-phenyl-1,3,8-triaza-spiro[4.5]decan-4-one], the IC50 was > 100000 nM in test [1] and 1000 to 10000 nM in test [2].
On to `O=C(NCc1ccc(OC(F)(F)F)cc1)c1cccc(-c2cnc3c(c2)N(Cc2cc(Cl)ccc2C(F)(F)F)CCN3)c1` [Example 331, 3-{1-[5-Chloro-2-(trifluoromethyl)benzyl]-1,2,3,4-tetrahydropyrido[2,3-b]pyrazin-7-yl}-N-[4-(trifluoromethoxy)benzyl]benzamide], for which the IC50 in test [2] was in the range of 1000 to 10000 nM.
As to `COc1ccc(CN2CCN(C(=O)c3cccc(-c4cnc5c(c4)N(Cc4cc(Cl)ccc4C(F)(F)F)CCN5)c3)CC2)cc1` [Example 322, (3-{1-[5-Chloro-2-(trifluoromethyl)benzyl]-1,2,3,4-tetrahydropyrido[2,3-b]pyrazin-7-yl}phenyl)-[4-(4-methoxybenzyl)piperazin-1-yl]methanone], the IC50 in test [2] lay in the range of 100 to 1000 nM.
With `O=C(NCCOc1ccccc1)c1cccc(-c2cnc3c(c2)N(Cc2cc(Cl)ccc2C(F)(F)F)CCN3)c1` [Example 355, 3-{1-[5-Chloro-2-(trifluoromethyl)benzyl]-1,2,3,4-tetrahydropyrido[2,3-b]pyrazin-7-yl}-N-(2-phenoxyethyl)benzamide], the IC50 in test [2] lay within 100 to 1000 nM.
On the same count and under the same terms, the same measure for `O=C(NC(c1ccccc1)c1ccccc1)c1ccc(-c2cnc3c(c2)N(Cc2cc(Cl)ccc2C(F)(F)F)CCN3)cc1` [Example 399, N-Benzhydryl-4-{1-[5-chloro-2-(trifluoromethyl)benzyl]-1,2,3,4-tetrahydropyrido[2,3-b]pyrazin-7-yl}benzamide]: 1000 to 10000 nM.
On the same count and under the same terms, the same measure for `O=C(NCCc1cccs1)c1ccc(-c2cnc3c(c2)N(Cc2cc(Cl)ccc2C(F)(F)F)CCN3)cc1` [Example 398, 4-{1-[5-Chloro-2-(trifluoromethyl)benzyl]-1,2,3,4-tetrahydropyrido[2,3-b]pyrazin-7-yl}-N-(2-thiophen-2-yl-ethyl)benzamide]: 100 to 1000 nM.
Still for that read-out and setting: the same measure for `O=C(NCc1cccc(Cl)c1)c1cccc(-c2cnc3c(c2)N(Cc2cc(Cl)ccc2C(F)(F)F)CCN3)c1` [Example 350, N-(3-Chlorobenzyl)-3-{1-[5-Chloro-2-(trifluoromethyl)benzyl]-1,2,3,4-tetrahydropyrido[2,3-b]pyrazin-7-yl}benzamide]: 1000 to 10000 nM; for `O=C(NCc1ccncc1)c1ccc(-c2cnc3c(c2)N(Cc2cc(Cl)ccc2C(F)(F)F)CCN3)cc1` [Example 400, 4-{1-[5-Chloro-2-(trifluoromethyl)benzyl]-1,2,3,4-tetrahydropyrido[2,3-b]pyrazin-7-yl}-N-pyridin-4-ylmethylbenzamide]: 100 to 1000 nM; for `O=C(c1ccc(-c2cnc3c(c2)N(Cc2cc(Cl)ccc2C(F)(F)F)CCN3)cc1)N1CCN(c2ccccc2Cl)CC1` [Example 426, [4-(2-Chlorophenyl)piperazin-1-yl]-(4-{1-[5-chloro-2-(trifluoromethyl)benzyl]-1,2,3,4-tetrahydropyrido[2,3-b]pyrazin-7-yl}phenyl)methanone]: 100 to 1000 nM.
`Cc1cc(N2CCN(C(=O)c3cccc(-c4cnc5c(c4)N(Cc4cc(Cl)ccc4C(F)(F)F)CCN5)c3)CC2)c2ccccc2n1` [Example 337, (3-{1-[5-Chloro-2-(trifluoromethyl)benzyl]-1,2,3,4-tetrahydropyrido[2,3-b]pyrazin-7-yl}phenyl)-[4-(2-methylquinolin-4-yl)piperazin-1-yl]methanone]: the IC50 in test [2] lay within 100 to 1000 nM.
Still for that read-out and setting: the same measure for `O=C(c1cccc(-c2cnc3c(c2)N(Cc2cc(Cl)ccc2C(F)(F)F)CCN3)c1)N1CCN(c2ccc(Cl)c(Cl)c2)CC1` [Example 317, (3-{1-[5-Chloro-2-(trifluoromethyl)benzyl]-1,2,3,4-tetrahydropyrido[2,3-b]pyrazin-7-yl}phenyl)-[4-(3,4-dichlorophenyl)piperazin-1-yl]methanone]: 100 to 1000 nM; for `O=C(c1cccc(-c2cnc3c(c2)N(Cc2cc(Cl)ccc2C(F)(F)F)CCN3)c1)N1CCN(c2cnccn2)CC1` [Example 339, (3-{1-[5-Chloro-2-(trifluoromethyl)benzyl]-1,2,3,4-tetrahydropyrido[2,3-b]pyrazin-7-yl}phenyl)-(2,3,5,6-tetrahydro-[1,2′]bipyrazinyl-4-yl)methanone]: 100 to 1000 nM; for `COc1ccc(CN2CCN(C(=O)c3ccc(-c4cnc5c(c4)N(Cc4cc(Cl)ccc4C(F)(F)F)CCN5)cc3)CC2)cc1` [Example 384, (4-{1-[5-Chloro-2-(trifluoromethyl)benzyl]-1,2,3,4-tetrahydropyrido[2,3-b]pyrazin-7-yl}phenyl)-[4-(4-methoxybenzyl)piperazin-1-yl]methanone]: 100 to 1000 nM.
Still for that read-out and setting: the same measure for `CN1CCC(NC(=O)c2cccc(-c3cnc4c(c3)N(Cc3cc(Cl)ccc3C(F)(F)F)CCN4)c2)CC1` [Example 329, 3-{1-[5-Chloro-2-(trifluoromethyl)benzyl]-1,2,3,4-tetrahydropyrido[2,3-b]pyrazin-7-yl}-N-(1-methylpiperidin-4-yl)benzamide]: < 100 nM; for `O=C(NCc1cccnc1)c1cccc(-c2cnc3c(c2)N(Cc2cc(Cl)ccc2C(F)(F)F)CCN3)c1` [Example 335, 3-{1-[5-Chloro-2-(trifluoromethyl)benzyl]-1,2,3,4-tetrahydropyrido[2,3-b]pyrazin-7-yl}-N-pyridin-3-ylmethylbenzamide]: 100 to 1000 nM; for `O=C(NC1CCCCC1)c1cccc(-c2cnc3c(c2)N(Cc2cc(Cl)ccc2C(F)(F)F)CCN3)c1` [Example 346, 3-{1-[5-Chloro-2-(trifluoromethyl)benzyl]-1,2,3,4-tetrahydropyrido[2,3-b]pyrazin-7-yl}-N-cyclohexylbenzamide]: 100 to 1000 nM.
Turning to `O=C(c1ccc(-c2cnc3c(c2)N(Cc2cc(Cl)ccc2C(F)(F)F)CCN3)cc1)N1CCN(CCc2ccccn2)CC1` [Example 394, (4-{1-[5-Chloro-2-(trifluoromethyl)benzyl]-1,2,3,4-tetrahydropyrido[2,3-b]pyrazin-7-yl}phenyl)-[4-(2-pyridin-2-yl-ethyl)piperazin-1-yl]methanone], the IC50 in test [2] was < 100 nM.

By IC50 is commonly meant the concentration that gives 50% inhibition.
